Consider 10 molecules from PubChem BioAssay (NCI).

SMILES strings stand for the structures.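 Exposure lasted 48 hours, with cells grown in 96-well plates and compounds tested at five concentrations. The concentration for 50% growth inhibition is given as GI50. TGI denotes the concentration required for complete inhibition of growth.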 A value given as a limit tells only on which side of the number the result lay.

Holding throughout (experiment): growth of human tumour cells (NCI), 48 h
Assay [1] has as its system HCT-116 colon.
Assay [2] relates to HT29 colon.
The test system of assay [3] is LOX IMVI melanoma.
Assay [4] has as its system NCI-H522 lung.
In assay [5] the test system is OVCAR-8 ovarian.
In assay [6] the test system is PC-3 prostate.
Assay [7] relates to SR leukemia.
Assay [8] deals with SW-620 colon.
Assay [9] concerns UACC-62 melanoma.
Assay [10] concerns EKVX NSCLC.

In the case of `CCC(C)CC(C)C(=O)c1c(O)ccn(O)c1=O` (centres undefined), the GI50 in assay [1] is 1.08 µM; in assay [2] it was 27.2 µM; in assay [3], 0.804 µM; in assay [4] it was 2.46 µM; in assay [5] it was 0.626 µM; in [6] it was 1.33 µM. The GI50 is 0.498 µM in [7], 0.607 µM in [8] and 2.27 µM in [9]. For the same molecule, the TGI in assay [1], in assay [2], in [3], in assay [4], in assay [5] and in [6] was over 100 µM throughout. The values for the TGI in assay [7], in assay [8] and in assay [9] were 18.3 µM, over 100 µM and 6.74 µM, respectively.
With `O=C(O)c1ccc(C(=O)O)c(C(=O)O)c1.[NH-]C1CCCCC1[NH-].[Pt+2]`, the GI50 was 29.1 µM in [10]; 1.07 µM in assay [1]; 0.998 µM in [2]; 3.45 µM in assay [3]; 2.92 µM in assay [5]; 4.94 µM in assay [6]. The GI50 was 0.43 µM in [8] and 2.82 µM in assay [9]. Besides, the TGI in assay [10] worked out at 90.8 µM; in [1], 47.3 µM; in assay [2], 54.9 µM; in [3] it was 68.2 µM; in [4], 24.7 µM; in [5] it was 60.8 µM. In addition, the TGI in [6] was 59.5 µM; in [8] it was 57.9 µM; in assay [9], 36 µM.
Turning to `O=C1/C(=C\c2ccccc2)CN(C(=O)c2ccccc2)C/C1=C\c1ccccc1`, the GI50 in [1] is 0.321 µM; in assay [2], 1.91 µM; in assay [3], 1.38 µM; in [4], 2.29 µM; in assay [5], 2.96 µM; in assay [6], 2.27 µM. For the same molecule, the GI50 in assay [7] was 0.335 µM; in assay [8], 1.47 µM; in assay [9], 1.69 µM. In addition, the TGI came to 1.1 µM in assay [1]; 4.09 µM in assay [2]; 2.89 µM in assay [3]; 5.27 µM in assay [4]; 11.1 µM in assay [5]; 7.86 µM in assay [6]. Also, the TGI was 2.9 µM in assay [7], 3.04 µM in assay [8] and 3.42 µM in [9].
On to `C/C(=N/NC(=S)N1CC2CCC(CC2)C1)c1cnccn1`, for which the TGI is 12.3 µM in assay [10]; 12.3 µM in [1]; 12.2 µM in assay [2]; 11.4 µM in assay [3]; 10.1 µM in [4]; 11.8 µM in assay [5]. Further, the TGI in [6] came out at 8.46 µM; in assay [8] it was 12.4 µM; in assay [9] it was 6.08 µM.
With `NC(=O)CCc1ccccc1Oc1nccc(-c2c(-c3ccc(F)cc3)ncn2C2CCNCC2)n1`, the GI50 in assay [10], in assay [1], in assay [2], in assay [3], in [4] and in assay [5] was over 25 µM in each case. The GI50 in [6], in assay [8] and in assay [9] was over 25 µM in each case. In addition, the TGI in assay [10], in assay [1], in assay [2], in assay [3], in assay [4] and in assay [5] was over 25 µM throughout. The TGI in assay [6], in assay [8] and in assay [9] was over 25 µM in each case.
With `O=c1nc(N2CCCC2)nc(N2CCCC2)s1`, the TGI in [10], in [1], in [2], in assay [3], in assay [4] and in assay [5] was over 100 µM each time. Moreover, the TGI in assay [7], in [8] and in assay [9] was over 100 µM in each case.
On to `O=[N+]([O-])/C=C/c1cc2ccc3ccccc3c2[nH]1`, for which the TGI in assay [10] is 5.33 µM; in [1], 3.43 µM; in assay [2], 5.86 µM; in [3], 2.42 µM; in assay [4] it was 2.4 µM; in assay [5], over 21 µM. Also, the TGI in assay [6] came out at 3 µM; in assay [8] it was 4.87 µM; in assay [9], 3.51 µM.
In the case of `O=C(CCN1CCC(CCO)CC1)Nc1ccc2c(c1)C(=O)c1ccc(NC(=O)CCN3CCC(CCO)CC3)cc1C2=O`, the TGI in [10] is over 100 µM; in assay [1] it was 31.2 µM; in assay [2], over 100 µM; in assay [3] it was 64 µM; in assay [4] it was 24 µM; in assay [5] it was 61.6 µM. For the same molecule, the TGI in assay [7] was found to be 55.7 µM; in [8], 29.1 µM; in assay [9], 38.4 µM.
Consider `O=Cc1ccc(-c2ccc(-c3ccc(C=O)o3)[se]2)o1`, for which the GI50 in [1] was over 100 µM; in assay [2], over 100 µM; in assay [3], over 100 µM; in assay [4], 16.3 µM; in [5], over 100 µM; in assay [6], over 100 µM. Moreover, the GI50 in assay [7], in assay [8] and in [9] was over 100 µM throughout. In addition, the TGI in assay [1] is over 100 µM; in assay [2], over 100 µM; in [3], over 100 µM; in assay [4] it was 31.1 µM; in assay [5] it was over 100 µM; in assay [6] it was over 100 µM. Also, the TGI in assay [7], in [8] and in [9] was over 100 µM each time.
Take `NC(CO)c1ccc(OCc2ccccc2)cc1` (centres undefined): the TGI in assay [10], in assay [1], in assay [2], in [3], in [4] and in assay [5] was over 100 µM each time. The TGI in assay [7] is 81.5 µM; in assay [8] it was over 100 µM; in [9] it was over 100 µM.
